Source: patent publication US6867284B1, “Peptide inhibitors of hepatitis C virus NS3 protease” (Istituto di Ricerche di Biologia Molecolare P. Angeletti …, priority 1998, dated 2005)

What follows are compounds tested against T1, HCV NS3 protease (Hepatitis C virus genotype 1b, UniProt P26663) (assay: Inhibition of NS3 protease (HPLC cleavage assay, NS3/4A complex with Pep4AK, substrate peptide 4AB)). Details: not given.
T1 construct: an NS3/4A complex comprising the NS3 protease domain
T1 sequence (P26663 1027-1208, other chains not shown): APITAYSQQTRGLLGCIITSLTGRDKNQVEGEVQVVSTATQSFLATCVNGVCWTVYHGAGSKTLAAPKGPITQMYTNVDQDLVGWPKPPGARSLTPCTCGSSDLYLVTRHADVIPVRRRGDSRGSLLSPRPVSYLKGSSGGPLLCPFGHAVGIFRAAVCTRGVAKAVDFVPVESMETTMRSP
Format: biochemical
Method: Buffer solutions containing 80 μM Pep4AK were preincubated for 10 minutes with 10-200 nM protease and reactions were started by addition of substrate. Six duplicate data points at different substrate concentrations were used to calculate kinetic parameters. Incubation times were chosen in order to obtain <7% substrate conversion and reactions were stopped by addition of 40 μl 1% TFA. Cleavage of peptide substrates was determined by HPLC using a Merck-Hitachi chromatograph equipped with an autosampler. 80 μl samples were injected on a Lichrospher C18 reversed phase cartridge column (4×74 mm, 5 μm, Merck) and fragments were separated using a 10-40% acetonitrile gradient a 5%/min using a flow rate of 2.5 ml/min. Peak detection was accomplished by monitoring both the absorbance at 220 nm and tyrosine fluorescence (λex=260 nm, λem=305 nm). Cleavage products were quantitated by integration of chromatograms with respect to appropriate standards. Kinetic parameters were calculated from nonlinear least-squares fit of initial rates as a function of substrate concentration with the help of a Kaleidagraph software, assuming Michaelis-Menten kinetics.
Ki values of peptide inhibitors were calculated from substrate titration experiments performed in the presence of increasing amounts of inhibitor. Experimental data sets were simultaneously fitted to eq.1 using a multicurve fit macro with the help of a Sigmaplot software: V=(VmaxS)/(Km(1+[…])+S); (eq.1)
Alternatively, Ki values were derived from IC50 values, calculated using a four-parameter logistic function, according to eq.2: IC50−(1+S/Km)Ki (eq.2)
`CC(C)C[C@H](NC(=O)CC(CC(=O)O)c1ccccc1)C(=O)NC(CC(F)F)C(=O)C(=O)O` (mixture of isomers) [Compound 7j] was tested, and the IC50 was 26000 nM.

Same assay, conditions: Table 1 hexapeptides, cells printed in nM; read-out: IC50
Compound `CC(=O)N[C@@H](CC(=O)O)C(=O)N[C@@H](CCC(=O)O)C(=O)N[C@H](C(=O)N[C@@H](CCC(=O)O)C(=O)N[C@@H](CC1CCCCC1)C(=O)NC(CC(F)F)C(=O)O)C(c1ccccc1)c1ccccc1` (single isomer, unassigned) [Compound 1b (L)] has an IC50 of 20 nM. `CC(=O)N[C@@H](CC(=O)O)C(=O)N[C@@H](CCC(=O)O)C(=O)N[C@H](C(=O)N[C@@H](CCC(=O)O)C(=O)N[C@@H](CC1CCCCC1)C(=O)NC(C=O)CC(F)F)C(c1ccccc1)c1ccccc1` (single isomer, unassigned) [Compound 1c (D)] was tested, and the IC50 was 43 nM.

Same assay, conditions: Table 1 hexapeptides, cells printed in μM; read-out: IC50
`CC(=O)N[C@@H](CC(=O)O)C(=O)N[C@@H](CCC(=O)O)C(=O)N[C@H](C(=O)N[C@@H](CCC(=O)O)C(=O)N[C@@H](CC1CCCCC1)C(=O)NC(CC(F)F)C(=O)O)C(c1ccccc1)c1ccccc1` (single isomer, unassigned) [Compound 1b (D)] gave an IC50 of 1000 nM.

Same assay, conditions: Table 3 capped dipeptide keto acids; read-out: IC50
Compound `CCCC(CCC)C(=O)N[C@@H](CC(C)C)C(=O)NC(CC(F)F)C(=O)C(=O)O` (mixture of isomers) [Compound 7c] has an IC50 of 78000 nM. In the case of `CC(C)C[C@H](NC(=O)CCCC(=O)O)C(=O)NC(CC(F)F)C(=O)C(=O)O` (mixture of isomers) [Compound 7d], the IC50 is reported as 6000 nM. `CC(C)C[C@H](NC(=O)CC(C)(C)CC(=O)O)C(=O)NC(CC(F)F)C(=O)C(=O)O` (mixture of isomers) [Compound 7e] was tested, and the IC50 was 4000 nM. `CC(C)C[C@H](NC(=O)COCC(=O)O)C(=O)NC(CC(F)F)C(=O)C(=O)O` (mixture of isomers) [Compound 7h] gave an IC50 of 32000 nM. Compound `CC(C)C[C@H](NC(=O)CC(CC(=O)O)c1ccc(Cl)cc1)C(=O)NC(CC(F)F)C(=O)C(=O)O` (mixture of isomers) [Compound 7k] has an IC50 of 35000 nM. `COC(=O)CC1(CC(=O)N[C@@H](CC(C)C)C(=O)NC(CC(F)F)C(=O)C(=O)O)CCCC1` (mixture of isomers) [Compound 7m] gave an IC50 of 85000 nM. `CC(C)C[C@H](NC(=O)CC1(CC(=O)NS(=O)(=O)c2ccccc2)CCCC1)C(=O)NC(CC(F)F)C(=O)C(=O)O` (mixture of isomers) [Compound 7n] was tested, and the IC50 was 7000 nM. `CC(C)C[C@H](NC(=O)C1(CCC(=O)O)CCCC1)C(=O)NC(CC(F)F)C(=O)C(=O)O` (mixture of isomers) [Compound 7o] was tested, and the IC50 was 22000 nM. In the case of `CC(C)C[C@H](NC(=O)CC1(CC(=O)O)CCCCC1)C(=O)NC(CC(F)F)C(=O)C(=O)O` (mixture of isomers) [Compound 7q], the IC50 is reported as 2000 nM. Work on `CC(C)C[C@H](NC(=O)Cc1cccc(CC(=O)O)c1)C(=O)NC(CC(F)F)C(=O)C(=O)O` (mixture of isomers) [Compound 8c] yielded an IC50 of 7000 nM. `CC(C)C[C@H](NC(=O)Cc1ccc(CC(=O)O)cc1)C(=O)NC(CC(F)F)C(=O)C(=O)O` (mixture of isomers) [Compound 8d] showed an IC50 of 7000 nM. `CC(C)C[C@H](NC(=O)C(Sc1ccccc1)c1ccccc1)C(=O)NC(CC(F)F)C(=O)C(=O)O` (mixture of isomers) [Compound 8i] gave an IC50 of 28000 nM. Compound `CC(C)C[C@H](NC(=O)C(Cc1ccccc1)c1ccccc1)C(=O)NC(CC(F)F)C(=O)C(=O)O` (mixture of isomers) [Compound 8j] has an IC50 of 100000 nM. `COc1ccc(C(Oc2ccccc2)C(=O)N[C@@H](CC(C)C)C(=O)NC(CC(F)F)C(=O)C(=O)O)cc1` (mixture of isomers) [Compound 8k] showed an IC50 of 72000 nM. `CC(C)C[C@H](NC(=O)[C@H](O)C1CCCCC1)C(=O)NC(CC(F)F)C(=O)C(=O)O` (mixture of isomers) [Compound 8l] was tested, and the IC50 was 14000 nM. With `CC(C)C[C@H](NC(=O)C1OC(=O)CC12CCCC2)C(=O)NC(CC(F)F)C(=O)C(=O)O` (mixture of isomers) [Compound 8m] the IC50 was 60000 nM. Work on `CC(C)C[C@H](NC(=O)[C@H](O)c1ccccc1)C(=O)NC(CC(F)F)C(=O)C(=O)O` (mixture of isomers) [Compound 8n] yielded an IC50 of 6000 nM. `CC(C)C[C@H](NC(=O)[C@H](O)c1ccc(C(F)(F)F)cc1)C(=O)NC(CC(F)F)C(=O)C(=O)O` (mixture of isomers) [Compound 8o] showed an IC50 of 56000 nM. `COc1ccc([C@@H](O)C(=O)N[C@@H](CC(C)C)C(=O)NC(CC(F)F)C(=O)C(=O)O)cc1` (mixture of isomers) [Compound 8p] gave an IC50 of 25000 nM. Work on `CC(C)C[C@H](NC(=O)[C@H](O)c1ccc(Cl)cc1)C(=O)NC(CC(F)F)C(=O)C(=O)O` (mixture of isomers) [Compound 8q] yielded an IC50 of 25000 nM. `CC(C)C[C@H](NC(=O)[C@H](O)c1ccccc1Cl)C(=O)NC(CC(F)F)C(=O)C(=O)O` (mixture of isomers) [Compound 8r] showed an IC50 of 82000 nM.

Same assay, conditions: Table 4 indoline keto acids and related; read-out: IC50
With `CCCCC1(C(=O)NC(CC(C)C)C(=O)NC(CC(F)F)C(=O)C(=O)O)Cc2ccccc2N1` (mixture of isomers) [Compound 9b] the IC50 was 87000 nM. With `CC(C)C[C@H](NC(=O)C1(C(C)C)Cc2ccccc2N1)C(=O)NC(CC(F)F)C(=O)C(=O)O` (mixture of isomers) [Compound 9c] the IC50 was 92000 nM. Compound `CC(C)C[C@H](NC(=O)C1(CC(C)C)Cc2ccccc2N1)C(=O)NC(CC(F)F)C(=O)C(=O)O` (mixture of isomers) [Compound 9d] has an IC50 of 16000 nM. `CC(C)=CCC1(C(=O)NC(CC(C)C)C(=O)NC(CC(F)F)C(=O)C(=O)O)Cc2ccccc2N1` (mixture of isomers) [Compound 9e] gave an IC50 of 69000 nM. `CC(C)CCC1(C(=O)N[C@@H](CC(C)C)C(=O)NC(CC(F)F)C(=O)C(=O)O)Cc2ccccc2N1` (mixture of isomers) [Compound 9f] was tested, and the IC50 was 120000 nM. `CCC(C)CC1(C(=O)N[C@@H](CC(C)C)C(=O)NC(CC(F)F)C(=O)C(=O)O)Cc2ccccc2N1` (mixture of isomers) [Compound 9h] gave an IC50 of 81000 nM. Work on `CC(C)C[C@H](NC(=O)C1(CC2CCC2)Cc2ccccc2N1)C(=O)NC(CC(F)F)C(=O)C(=O)O` (mixture of isomers) [Compound 9j] yielded an IC50 of 34000 nM. Compound `CC(C)C[C@H](NC(=O)C1(C2CCCCC2)Cc2ccccc2N1)C(=O)NC(CC(F)F)C(=O)C(=O)O` (mixture of isomers) [Compound 9k] has an IC50 of 69000 nM. Compound `CC(C)C[C@H](NC(=O)C1(CC2CCCCC2)Cc2ccccc2N1)C(=O)NC(CC(F)F)C(=O)C(=O)O` (mixture of isomers) [Compound 9l] has an IC50 of 31000 nM. `COCCOCC1(C(=O)N[C@@H](CC(C)C)C(=O)NC(CC(F)F)C(=O)C(=O)O)Cc2ccccc2N1` (mixture of isomers) [Compound 9m] showed an IC50 of 57000 nM. In the case of `CC(C)C[C@H](NC(=O)C1(CC(=O)O)Cc2ccccc2N1)C(=O)NC(CC(F)F)C(=O)C(=O)O` (mixture of isomers) [Compound 9n], the IC50 is reported as 81000 nM. Compound `CC(C)C[C@H](NC(=O)C1(Cc2ccccc2)Cc2ccccc2N1)C(=O)NC(CC(F)F)C(=O)C(=O)O` (mixture of isomers) [Compound 9o] has an IC50 of 45000 nM. With `CC(C)C[C@H](NC(=O)C1(C(C)c2ccccc2)Cc2ccccc2N1)C(=O)NC(CC(F)F)C(=O)C(=O)O` (mixture of isomers) [Compound 9p] the IC50 was 88000 nM. `CC(C)C[C@H](NC(=O)C1(Cc2cccc(Br)c2)Cc2ccccc2N1)C(=O)NC(CC(F)F)C(=O)C(=O)O` (mixture of isomers) [Compound 9r] gave an IC50 of 100000 nM. `COc1cccc(CC2(C(=O)N[C@@H](CC(C)C)C(=O)NC(CC(F)F)C(=O)C(=O)O)Cc3ccccc3N2)c1` (mixture of isomers) [Compound 9s] gave an IC50 of 38000 nM. `CC(C)CC(NC(=O)C1(Cc2cccc(C#N)c2)Cc2ccccc2N1)C(=O)NC(CC(F)F)C(=O)C(=O)O` (mixture of isomers) [Compound 9t] gave an IC50 of 9000 nM. `CC(C)C[C@H](NC(=O)C1(Cc2cccc(Oc3ccccc3)c2)Cc2ccccc2N1)C(=O)NC(CC(F)F)C(=O)C(=O)O` (mixture of isomers) [Compound 9v] gave an IC50 of 24000 nM. `CC(C)C[C@H](NC(=O)C1(Cc2ccc(Cl)s2)Cc2ccccc2N1)C(=O)NC(CC(F)F)C(=O)C(=O)O` (mixture of isomers) [Compound 9w] showed an IC50 of 3000 nM. Compound `CC(C)C[C@H](NC(=O)C1(CC(C)C)Cc2ccc(Oc3ccccc3)cc2N1)C(=O)NC(CC(F)F)C(=O)C(=O)O` (mixture of isomers) [Compound 10c] has an IC50 of 100000 nM. `CC(C)C[C@H](NC(=O)C1Cc2ccc(OCC3CC3)cc2N1)C(=O)NC(CC(F)F)C(=O)C(=O)O` (mixture of isomers) [Compound 10d] was tested, and the IC50 was 66000 nM. In the case of `CC(C)C[C@H](NC(=O)C1Cc2ccc(OC3CCOC3)cc2N1)C(=O)NC(CC(F)F)C(=O)C(=O)O` (mixture of isomers) [Compound 10g], the IC50 is reported as 23000 nM. `CC(C)C[C@H](NC(=O)C1Cc2ccc(OCC3CCOC3)cc2N1)C(=O)NC(CC(F)F)C(=O)C(=O)O` (mixture of isomers) [Compound 10h] showed an IC50 of 16000 nM. With `CC(C)C[C@H](NC(=O)C1(CC(C)C)CCC(=O)N1)C(=O)NC(CC(F)F)C(=O)C(=O)O` (mixture of isomers) [Compound 11] the IC50 was 43000 nM.
